This is an account of results in PubChem BioAssay (NCI).

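Interpolation was linear, between the two tested concentrations surrounding the appropriate level; five concentrations were tested over 48 hours in 96-well plates. TGI denotes the concentration required for complete inhibition of growth.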 A value given as a limit tells only on which side of the number the result lay.

Some test systems named below: HCC-2998 colon; RXF 393 renal; MALME-3M melanoma; CCRF-CEM leukemia; KM12 colon; SK-MEL-28 melanoma; OVCAR-8 ovarian; SNB-78 CNS; ACHN renal; M14 melanoma; NCI-H226 lung; SW-620 colon; MOLT-4 leukemia; OVCAR-5 ovarian; DU-145 prostate; MCF7 breast; T-47D breast; CAKI-1 renal; BT-549 breast.
Holding throughout (assay): growth of human tumour cells (NCI), 48 h

`CCCCCCCCCCCCCCCCNc1cccc2ccccc12`: the TGI in the test with HCC-2998 colon, in the test on RXF 393 renal, in the test on MALME-3M melanoma, in the test on CCRF-CEM leukemia, in the test on KM12 colon and in the test on SK-MEL-28 melanoma was more than 100 µM throughout. In addition, the TGI in the test on OVCAR-8 ovarian, with SNB-78 CNS, with ACHN renal, with M14 melanoma, in the test on NCI-H226 lung and with SW-620 colon was more than 100 µM each time. The TGI in the test on MOLT-4 leukemia was more than 100 µM.
On to `O=C1OCC/C1=N/O`, for which the TGI in the test with HCC-2998 colon, with RXF 393 renal, in the test on MALME-3M melanoma, with CCRF-CEM leukemia, in the test on KM12 colon and with SK-MEL-28 melanoma was more than 100 µM in each case. Moreover, the TGI in the test on OVCAR-8 ovarian, with SNB-78 CNS, in the test on OVCAR-5 ovarian, in the test on ACHN renal, with M14 melanoma and in the test with NCI-H226 lung was more than 100 µM each time. Besides, the TGI in the test with SW-620 colon and with MOLT-4 leukemia was more than 100 µM each time.
Regarding `CCCCCCCCCCCC[S+](C)C`, the TGI in the test on DU-145 prostate was 17.6 µM; in the test with MCF7 breast, 24.5 µM; in the test on HCC-2998 colon, 16.8 µM; in the test on RXF 393 renal, 9.38 µM; with MALME-3M melanoma it was 22.4 µM; with CCRF-CEM leukemia, 14.5 µM. The TGI stood at 14.3 µM with KM12 colon; 25.3 µM in the test with SK-MEL-28 melanoma; 17.9 µM with OVCAR-8 ovarian; 26.6 µM in the test on SNB-78 CNS; 22.5 µM in the test on OVCAR-5 ovarian; 3.37 µM in the test with T-47D breast. For the same molecule, the TGI with ACHN renal was found to be 19.4 µM; in the test on M14 melanoma, 19.9 µM; in the test with CAKI-1 renal it was 10.3 µM; in the test with NCI-H226 lung, 15.4 µM; with SW-620 colon, 30.2 µM; with MOLT-4 leukemia it was 28.2 µM. Moreover, the TGI with BT-549 breast was 7.68 µM.
In the case of `CC1=Cc2cccc(C)c2C(=O)C1=O`, the TGI in the test on HCC-2998 colon was 27.8 µM; in the test on RXF 393 renal, 8.85 µM; with MALME-3M melanoma, 3.26 µM; in the test on KM12 colon, 19.7 µM; with SK-MEL-28 melanoma it was 31.5 µM; in the test on OVCAR-8 ovarian, 41.7 µM. In addition, the TGI with SNB-78 CNS was more than 100 µM; with OVCAR-5 ovarian, 34.2 µM; in the test on M14 melanoma, 9.54 µM; in the test with CAKI-1 renal, 32.5 µM; with NCI-H226 lung, 30.5 µM; with SW-620 colon it was 10.3 µM.
For `Cc1ccc(/C=N\NC2c3cc(Cl)ccc3Nc3nc(=O)[nH]c(C)c32)cc1` (stereo not given), the TGI in the test with HCC-2998 colon, with RXF 393 renal, with MALME-3M melanoma, with CCRF-CEM leukemia, in the test on KM12 colon and in the test on SK-MEL-28 melanoma was more than 100 µM throughout. Besides, the TGI in the test on OVCAR-8 ovarian, in the test on SNB-78 CNS, in the test with ACHN renal, in the test on M14 melanoma, in the test with NCI-H226 lung and in the test with SW-620 colon was more than 100 µM in each case. This molecule also had a TGI in the test with MOLT-4 leukemia of more than 100 µM.
Take `CC(O)CNC(=O)C(C)Oc1ccc(OCC2CCCCC2)cc1` (stereo not given): the TGI with HCC-2998 colon, in the test on MALME-3M melanoma, in the test with CCRF-CEM leukemia, with KM12 colon, in the test on SK-MEL-28 melanoma and with OVCAR-8 ovarian was more than 100 µM each time. Moreover, the TGI in the test on SNB-78 CNS, in the test on ACHN renal, in the test on M14 melanoma, in the test with NCI-H226 lung and in the test on MOLT-4 leukemia was more than 100 µM each time.
In the case of `O=C(O)COc1ccccc1C(=O)Nc1ccccc1`, the TGI in the test with MALME-3M melanoma, in the test with CCRF-CEM leukemia, with KM12 colon, with SK-MEL-28 melanoma, in the test on OVCAR-8 ovarian and in the test on SNB-78 CNS was more than 100 µM each time. The TGI in the test with OVCAR-5 ovarian, with ACHN renal, in the test with M14 melanoma, in the test with CAKI-1 renal, in the test on NCI-H226 lung and with SW-620 colon was more than 100 µM in each case. This molecule showed a TGI in the test on MOLT-4 leukemia of more than 100 µM.
